Source: patent US20080312128A1, “Cellular Biomarker Antioxidant Assay and Uses Thereof” (priority 2005, published 2008)
Like-named read-outs stand apart in the source and are kept apart here.

Legend:
[1] = system: FosB; details: ARPE-19 cells
Protocol: For OS studies, ARPE19 cells were incubated for 1 hour at 37° C. in conditioned NR-1 media containing 50-500 μM H202. Cells were either not rinsed (1-, 2-, and 4-hour isolations) or rinsed using the Media Rinse 2 method (4-, 8-, and 24-hour isolations). At designated time-points, NR-1 medium was aspirated and the total cellular RNA was immediately isolated in TRI reagent (Sigma). Single wells were used in each plate to minimize any influence of temperature shifts on gene expression. All procedures were performed in a dim red light environment to reduce any influence of light on gene expression. RNA was isolated either before the onset of OS(O-hour control), or at 1, 2, 4, 8, or 24 hours after the start of the 1-hour OS treatment.
Assays of oxidative stress as described above with RPE cells were performed using the “no touch” technique, to determine whether OS-specific responses of FosB gene expression occurred during the first 8 hours after induction of stress. In addition, a dose-response study of FosB gene expression was performed to determine whether the degree of OS could be quantified using this molecular response.
(§1) Human retinal pigment epithelial (RPE) cells (ARPE-19) were cultured in DMEM/F12 media supplemented with 10% fetal bovine serum (FBS, Atlanta Biologicals, Norcross, Ga.) plus L-glutamine, penicillin, and streptomycin in an atmosphere of humidified 95% air and 5% CO2 at 37° C. until confluent in single wells of 6-well plates. The cells were initially grown in DMEM/F12 with FBS to reduce the time to reach confluence. Cells were then rinsed and fed with NR-1 media (BioSource, Camarillo, Calif.). NR-1 is a chemically defined tissue culture medium supplemented with EGF, insulin, hydrocortisone, and transferrin. After feeding with NR-1, the confluent cells were cultured for 3 days to stabilize gene expression.
(§2) The OS was not rinsed from the culture; rather, the NR-1 medium was aspirated and TRI Reagent (Sigma, St. Louis, Mo.) was immediately added to lyse the cells and stabilize the RNA at the designated time-points.
(§3) Total cellular RNA was isolated from the cells at time points 0, 1, and 4 hours using TRI reagent as described above using the protocol recommended by the manufacturer. The RNA was cleaned of trace DNA contaminants by treatment with DNA-Free (Ambion, Austin, Tex.) and the concentration was measured by spectrophotometry. The purified RNA was dissolved in DEPC-treated double distilled water at the concentration of 0.2 mg/ml. and stored at −80° C.
(§4) One μg of total cellular RNA was reversed transcribed (RT) in 20 μL of reaction volume using the Reverse Transcription System using the manufacturer's recommended protocol (Promega, Madison, Wis.). The RT product was diluted 1:5 with DNase-free water and quantitative PCR (qPCR) amplification was performed in 50 μl of buffer containing 1×SYBR® Green PCR Master mix (ABI), optimized forward and reverse qPCR primers and 5 μl of the 1:5 diluted RT product. The qPCR reaction was started at a 50° C. hold for 2 minutes, then 95° C. hold for 10 minutes, followed by 40 cycles of 95° C. for 15 seconds, and 60° C. for 1 minute. The reaction was performed using the ABI PRISM® 7700 Sequence Detection System.

[2] = system: cFos; assay: H2O2-induced c-Fos transcription in cultured RPE cells, qPCR; assay type: cell-based, human; details: for Fold change in expression, cFos, 1-Hr / Fold change in expression, cFos, 4-Hr: ARPE-19 cells
Protocol: as §1, §2, §3, §4

[3] = system: ATF3; assay: H2O2-induced ATF3 transcription in cultured RPE cells, qPCR; assay type: cell-based, human; details: for Fold change in expression, ATF3, 1-Hr / Fold change in expression, ATF3, 4-Hr: ARPE-19 cells
Protocol: as §1, §2, §3, §4

[4] = system: CRYBA; details: ARPE-19 cells
Protocol: as §1, §2, §3, §4

[5] = system: JunB; assay: H2O2-induced JunB transcription in cultured RPE cells, qPCR; assay type: cell-based, human; details: for Fold change, JunB, 1-Hr / Fold change, JunB, 4-Hr: ARPE-19 cells
Protocol: as §1, §2, §3, §4

[6] = system: HO-1; assay: H2O2-induced HO-1 transcription in cultured RPE cells, qPCR; assay type: cell-based, human; details: for Fold change, HO-1, 1-Hr / Fold change, HO-1, 4-Hr: ARPE-19 cells
[7] = system: FosL; assay: H2O2-induced FosL transcription in cultured RPE cells, qPCR; assay type: cell-based, human
Protocol: as §1, with “After feeding with NR-1, the confluent cells were cultured for 3 days to stabilize gene expression.” left out
Total cellular RNA was isolated from the cells at time points 0, 1, and 4 hours using TRI reagent as described above using the protocol recommended by the manufacturer. The RNA was cleaned of trace DNA contaminants by treatment with DNA-Free (Ambion, Austin, Tex.) and the concentration was measured by spectrophotometry. […]
One μg of total cellular RNA was reversed transcribed (RT) in 20 μL of reaction volume using the Reverse Transcription System using the manufacturer's recommended protocol (Promega, Madison, Wis.). The RT product was diluted 1:5 with DNase-free water and quantitative PCR (qPCR) amplification was performed in 50 μl of buffer containing 1×SYBR® Green PCR Master mix (ABI), optimized forward and reverse qPCR primers and 5 μl of the 1:5 diluted RT product. […]

[8] = system: CRYAA, CRYBB, and CRYGS crystallin genes; assay: H2O2-induced transcription of crystallin genes in cultured RPE cells, qPCR; assay type: cell-based, human; details: 100 μM and 500 μM H2O2, 1 and 4 hours
Protocol: Transcription of the above-identified crystallin genes was quantified at 1 and 4 hours in cells exposed to 100 μM and 500 μM H2O2-induced OS, and compared to controls.

[9] = system: ARPE-19 cells; details: confluent cell culture, MTT

Compound: OO [H2O2]
- Fold change in expression, FosB, 1-Hr ([1]; 50 μM H2O2, 1 h): 2 fold
- Fold change in expression, FosB, 4-Hr ([1]; 50 μM H2O2, 4 h): 2 fold
- Fold change in expression, FosB, 1-Hr ([1]; 100 μM H2O2, 1 h): 2 fold
- Fold change in expression, FosB, 4-Hr ([1]; 100 μM H2O2, 4 h): 6 fold
- Fold change in expression, FosB, 1-Hr ([1]; 200 μM H2O2, 1 h): 6 fold
- Fold change in expression, FosB, 4-Hr ([1]; 200 μM H2O2, 4 h): 6 fold
- Fold change in expression, FosB, 1-Hr ([1]; 350 μM H2O2, 1 h): 6 fold
- Fold change in expression, FosB, 4-Hr ([1]; 350 μM H2O2, 4 h): 20 fold
- Fold change in expression, FosB, 1-Hr ([1]; 500 μM H2O2, 1 h): 16 fold
- Fold change in expression, FosB, 4-Hr ([1]; 500 μM H2O2, 4 h): 64 fold
- Fold change in expression, cFos, 1-Hr ([2]; 50 μM H2O2, 1 h): 0 fold
- Fold change in expression, cFos, 4-Hr ([2]; 50 μM H2O2, 4 h): 1 fold
- Fold change in expression, cFos, 1-Hr ([2]; 100 μM H2O2, 1 h): 0 fold
- Fold change in expression, cFos, 4-Hr ([2]; 100 μM H2O2, 4 h): 2 fold
- Fold change in expression, cFos, 1-Hr ([2]; 200 μM H2O2, 1 h): 4 fold
- Fold change in expression, cFos, 4-Hr ([2]; 200 μM H2O2, 4 h): 3 fold
- Fold change in expression, cFos, 1-Hr ([2]; 350 μM H2O2, 1 h): 7 fold
- Fold change in expression, cFos, 4-Hr ([2]; 350 μM H2O2, 4 h): 16 fold
- Fold change in expression, cFos, 1-Hr ([2]; 500 μM H2O2, 1 h): 12 fold
- Fold change in expression, cFos, 4-Hr ([2]; 500 μM H2O2, 4 h): 32 fold
- Increase in transcription of c-Fos (maximum) ([2]; after 1 hour of OS, 0-500 μM H2O2): up to 12 fold
- Elevation of c-Fos transcription over controls ([2]; after 4 hours of OS): 8 fold
- Increase in ATF3 transcription ([3]; 1 hour after OS): ~3 fold
- Fold change in expression, ATF3, 1-Hr ([3]; 50 μM H2O2, 1 h): 0 fold
- Fold change in expression, ATF3, 4-Hr ([3]; 50 μM H2O2, 4 h): 0 fold
- Fold change in expression, ATF3, 1-Hr ([3]; 100 μM H2O2, 1 h): 0 fold
- Fold change in expression, ATF3, 4-Hr ([3]; 100 μM H2O2, 4 h): 0 fold
- Fold change in expression, ATF3, 1-Hr ([3]; 200 μM H2O2, 1 h): 2 fold
- Fold change in expression, ATF3, 4-Hr ([3]; 200 μM H2O2, 4 h): 3 fold
- Fold change in expression, ATF3, 1-Hr ([3]; 350 μM H2O2, 1 h): 2 fold
- Fold change in expression, ATF3, 4-Hr ([3]; 350 μM H2O2, 4 h): 8 fold
- Fold change in expression, ATF3, 1-Hr ([3]; 500 μM H2O2, 1 h): 3 fold
- Fold change in expression, CRYBA, 1-Hr ([4]; 50 μM H2O2, 1 h): 0 fold
- Fold change in expression, CRYBA, 4-Hr ([4]; 50 μM H2O2, 4 h): −2 fold
- Fold change in expression, CRYBA, 1-Hr ([4]; 100 μM H2O2, 1 h): 1 fold
- Fold change in expression, CRYBA, 4-Hr ([4]; 100 μM H2O2, 4 h): 3 fold
- Fold change in expression, CRYBA, 1-Hr ([4]; 200 μM H2O2, 1 h): 2 fold
- Fold change in expression, CRYBA, 4-Hr ([4]; 200 μM H2O2, 4 h): 1 fold
- Fold change in expression, CRYBA, 1-Hr ([4]; 350 μM H2O2, 1 h): 3 fold
- Fold change in expression, CRYBA, 4-Hr ([4]; 350 μM H2O2, 4 h): 3 fold
- Fold change in expression, CRYBA, 1-Hr ([4]; 500 μM H2O2, 1 h): 4 fold
- Fold change in expression, CRYBA, 4-Hr ([4]; 500 μM H2O2, 4 h): 4 fold
- Level of JunB transcriptional activation ([5]; 4 hours, all levels of OS ≧about 100 μM H2O2): ~4 fold
- Fold change, JunB, 1-Hr ([5]; 50 μM H2O2, 1 h): 0 fold
- Fold change, JunB, 4-Hr ([5]; 50 μM H2O2, 4 h): 1 fold
- Fold change, JunB, 1-Hr ([5]; 100 μM H2O2, 1 h): 0 fold
- Fold change, JunB, 4-Hr ([5]; 100 μM H2O2, 4 h): 8 fold
- Fold change, JunB, 1-Hr ([5]; 200 μM H2O2, 1 h): 0 fold
- Fold change, JunB, 4-Hr ([5]; 200 μM H2O2, 4 h): 4 fold
- Fold change, JunB, 1-Hr ([5]; 350 μM H2O2, 1 h): 0 fold
- Fold change, JunB, 4-Hr ([5]; 350 μM H2O2, 4 h): 4 fold
- Fold change, JunB, 1-Hr ([5]; 500 μM H2O2, 1 h): 3 fold
- Fold change, JunB, 4-Hr ([5]; 500 μM H2O2, 4 h): 4 fold
- H2O2 level above which HO-1 threshold response is seen [6]: above 50 μM
- Fold change, HO-1, 1-Hr ([6]; 50 μM H2O2, 1 h): 2 fold
- Fold change, HO-1, 4-Hr ([6]; 50 μM H2O2, 4 h): 2 fold
- Fold change, HO-1, 1-Hr ([6]; 100 μM H2O2, 1 h): 2 fold
- Fold change, HO-1, 4-Hr ([6]; 100 μM H2O2, 4 h): 8 fold
- Fold change, HO-1, 1-Hr ([6]; 200 μM H2O2, 1 h): 2 fold
- Fold change, HO-1, 4-Hr ([6]; 200 μM H2O2, 4 h): 8 fold
- Fold change, HO-1, 1-Hr ([6]; 350 μM H2O2, 1 h): 2 fold
- Fold change, HO-1, 4-Hr ([6]; 350 μM H2O2, 4 h): 6 fold
- Fold change, HO-1, 1-Hr ([6]; 500 μM H2O2, 1 h): 2 fold
- Fold change, HO-1, 4-Hr ([6]; 500 μM H2O2, 4 h): 6 fold
- Increase in FosL transcription compared to controls ([7]; 4 hours after OS, highest OS dose): 3 fold
- Increase in FosL transcription ([7]; after 1 hour of OS, 100 μM and 500 μM H2O2): 2 fold
- Induction of CRYAA, CRYBB, and CRYGS crystallin genes [8]: does not induce
- 500 μM H2O2 for up to 4-hours as percent of dose required to induce 10% cell death (LD10) [9]: 55%
